Measurements reported in the kinase profiling compilation of Christmann-Franck et al. (2016).

How the values were obtained:
Test in all cases: KINOMEscan competition binding
Settings in all cases: compound 10.0 µM
STK33 (human) = STK33 (human) (UniProt Q9BYT3)
MAPK6 (human) = MAPK6 (human) (UniProt Q16659)
PRKG1 (human) = PRKG1 (human) (UniProt Q13976)
SIK2 (human) = SIK2 (human) (UniProt Q9H0K1)
MARK1 (human) = MARK1 (human) (UniProt Q9P0L2)
MAP2K2 (human) = MAP2K2 (human) (UniProt P36507)
AKT3 (human) = AKT3 (human) (UniProt Q9Y243)
MAP2K6 (human) = MAP2K6 (human) (UniProt P52564)
CAMK2B (human) = CAMK2B (human) (UniProt Q13554)
MAPK12 (human) = MAPK12 (human) (UniProt P53778)
[1] = test system: KIT (human), P10721 [V559D/V654A]
SRMS (human) = SRMS (human) (UniProt Q9H3Y6)
SRMS (human), sequence (Q9H3Y6 whole entry, looked up): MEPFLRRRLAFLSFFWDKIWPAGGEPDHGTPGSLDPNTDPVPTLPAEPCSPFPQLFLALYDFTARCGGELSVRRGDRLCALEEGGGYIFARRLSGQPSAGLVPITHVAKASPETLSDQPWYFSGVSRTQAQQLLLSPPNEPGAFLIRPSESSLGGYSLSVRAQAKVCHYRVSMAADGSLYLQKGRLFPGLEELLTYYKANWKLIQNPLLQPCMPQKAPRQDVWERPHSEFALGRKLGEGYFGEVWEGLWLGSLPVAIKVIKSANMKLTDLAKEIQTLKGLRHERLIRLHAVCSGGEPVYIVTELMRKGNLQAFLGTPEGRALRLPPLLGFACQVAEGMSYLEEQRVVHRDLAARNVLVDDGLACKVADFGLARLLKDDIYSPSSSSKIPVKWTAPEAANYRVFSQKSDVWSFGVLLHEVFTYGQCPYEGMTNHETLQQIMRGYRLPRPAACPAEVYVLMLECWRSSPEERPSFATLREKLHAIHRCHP

MLTK (human) = MLTK (human) (UniProt Q9NYL2)
RAF1 (human) = RAF1 (human) (UniProt P04049)
RAF1 (human), sequence (P04049 whole entry, looked up): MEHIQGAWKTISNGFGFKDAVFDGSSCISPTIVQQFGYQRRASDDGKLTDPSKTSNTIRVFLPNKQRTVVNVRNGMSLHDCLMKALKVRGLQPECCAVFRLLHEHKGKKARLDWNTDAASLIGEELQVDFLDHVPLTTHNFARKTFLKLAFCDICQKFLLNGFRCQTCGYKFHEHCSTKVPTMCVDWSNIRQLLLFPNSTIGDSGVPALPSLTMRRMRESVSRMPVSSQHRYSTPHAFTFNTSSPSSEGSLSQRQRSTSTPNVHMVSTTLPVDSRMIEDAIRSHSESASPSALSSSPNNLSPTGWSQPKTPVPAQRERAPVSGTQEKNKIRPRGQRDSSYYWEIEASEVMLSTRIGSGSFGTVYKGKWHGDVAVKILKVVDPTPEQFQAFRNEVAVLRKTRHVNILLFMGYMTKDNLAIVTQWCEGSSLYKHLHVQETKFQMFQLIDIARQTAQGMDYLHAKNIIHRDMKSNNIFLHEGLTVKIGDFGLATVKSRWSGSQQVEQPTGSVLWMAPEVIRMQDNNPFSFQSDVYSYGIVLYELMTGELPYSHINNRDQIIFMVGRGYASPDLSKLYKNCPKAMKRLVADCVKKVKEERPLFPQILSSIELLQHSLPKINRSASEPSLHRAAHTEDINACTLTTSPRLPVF

CSNK1G1 (human) = CSNK1G1 (human) (UniProt Q9HCP0)
ULK2 (human) = ULK2 (human) (UniProt Q8IYT8)
PLK1 (human) = PLK1 (human) (UniProt P53350)
ACVR1 (human) = ACVR1 (human) (UniProt Q04771)
TEC (human) = TEC (human) (UniProt P42680)
STK32C (human) = STK32C (human) (UniProt Q86UX6)
[2] = test system: EGFR (human), P00533 [P753S; 747-752 del]
CLK4 (human) = CLK4 (human) (UniProt Q9HAZ1)
BMPR2 (human) = BMPR2 (human) (UniProt Q13873)
[3] = molecular target: TYK2 JH2 pseudokinase (human) (UniProt P29597)
TYK2 JH2 pseudokinase (human), sequence (P29597 whole entry, looked up): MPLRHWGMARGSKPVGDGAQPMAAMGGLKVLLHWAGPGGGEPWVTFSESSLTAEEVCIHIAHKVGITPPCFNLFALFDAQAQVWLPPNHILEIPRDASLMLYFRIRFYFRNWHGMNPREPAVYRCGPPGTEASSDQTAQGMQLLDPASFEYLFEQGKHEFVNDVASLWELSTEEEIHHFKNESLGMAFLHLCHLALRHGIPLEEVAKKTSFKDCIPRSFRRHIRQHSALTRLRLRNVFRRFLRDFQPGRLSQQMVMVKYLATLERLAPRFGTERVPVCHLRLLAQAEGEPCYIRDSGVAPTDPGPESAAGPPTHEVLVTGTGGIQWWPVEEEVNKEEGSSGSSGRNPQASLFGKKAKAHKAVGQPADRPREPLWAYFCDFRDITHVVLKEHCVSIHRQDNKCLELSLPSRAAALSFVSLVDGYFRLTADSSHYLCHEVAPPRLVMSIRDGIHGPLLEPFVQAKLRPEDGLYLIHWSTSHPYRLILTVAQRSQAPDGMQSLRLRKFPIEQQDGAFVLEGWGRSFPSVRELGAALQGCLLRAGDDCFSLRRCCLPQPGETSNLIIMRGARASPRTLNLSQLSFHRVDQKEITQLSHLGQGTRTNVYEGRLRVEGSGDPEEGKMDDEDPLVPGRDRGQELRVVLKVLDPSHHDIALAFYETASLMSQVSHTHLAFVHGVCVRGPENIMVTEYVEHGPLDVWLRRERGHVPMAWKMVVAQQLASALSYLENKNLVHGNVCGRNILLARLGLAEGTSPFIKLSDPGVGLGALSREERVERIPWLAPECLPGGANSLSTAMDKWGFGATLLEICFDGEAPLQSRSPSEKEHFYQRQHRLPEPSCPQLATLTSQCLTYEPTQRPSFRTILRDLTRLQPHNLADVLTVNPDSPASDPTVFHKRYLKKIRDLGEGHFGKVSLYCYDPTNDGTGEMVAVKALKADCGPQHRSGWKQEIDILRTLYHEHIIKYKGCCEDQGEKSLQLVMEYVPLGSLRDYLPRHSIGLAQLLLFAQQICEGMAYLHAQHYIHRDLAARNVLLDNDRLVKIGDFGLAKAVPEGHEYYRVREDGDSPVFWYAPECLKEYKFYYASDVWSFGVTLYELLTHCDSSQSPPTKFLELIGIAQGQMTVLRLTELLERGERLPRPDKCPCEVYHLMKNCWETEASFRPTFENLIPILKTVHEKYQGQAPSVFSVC

NTRK3 (human) = NTRK3 (human) (UniProt Q16288)
NTRK3 (human), sequence (Q16288 whole entry, looked up): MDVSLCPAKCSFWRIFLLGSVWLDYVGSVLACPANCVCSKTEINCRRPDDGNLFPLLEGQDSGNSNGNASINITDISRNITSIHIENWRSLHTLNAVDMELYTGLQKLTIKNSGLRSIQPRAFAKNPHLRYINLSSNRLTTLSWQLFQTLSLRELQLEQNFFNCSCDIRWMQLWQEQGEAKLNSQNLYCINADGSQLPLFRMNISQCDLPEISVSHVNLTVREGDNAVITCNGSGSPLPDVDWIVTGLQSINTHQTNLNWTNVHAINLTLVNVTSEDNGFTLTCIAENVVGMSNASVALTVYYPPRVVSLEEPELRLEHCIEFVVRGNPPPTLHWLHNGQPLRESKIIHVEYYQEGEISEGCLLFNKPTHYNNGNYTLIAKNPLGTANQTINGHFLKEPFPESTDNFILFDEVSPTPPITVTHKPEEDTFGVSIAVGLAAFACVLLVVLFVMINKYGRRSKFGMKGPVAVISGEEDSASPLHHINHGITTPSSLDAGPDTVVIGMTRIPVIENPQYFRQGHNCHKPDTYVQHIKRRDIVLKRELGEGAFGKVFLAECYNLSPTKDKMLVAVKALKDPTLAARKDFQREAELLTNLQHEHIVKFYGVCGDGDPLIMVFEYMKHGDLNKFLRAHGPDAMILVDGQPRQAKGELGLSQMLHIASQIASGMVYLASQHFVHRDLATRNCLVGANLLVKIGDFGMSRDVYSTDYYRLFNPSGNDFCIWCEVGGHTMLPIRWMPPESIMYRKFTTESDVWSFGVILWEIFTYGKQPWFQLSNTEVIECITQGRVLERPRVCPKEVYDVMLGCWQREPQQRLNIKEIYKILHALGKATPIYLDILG

CIT (human) = CIT (human) (UniProt O14578)
MAP4K4 (human) = MAP4K4 (human) (UniProt O95819)
MAP4K4 (human), sequence (O95819 whole entry, looked up): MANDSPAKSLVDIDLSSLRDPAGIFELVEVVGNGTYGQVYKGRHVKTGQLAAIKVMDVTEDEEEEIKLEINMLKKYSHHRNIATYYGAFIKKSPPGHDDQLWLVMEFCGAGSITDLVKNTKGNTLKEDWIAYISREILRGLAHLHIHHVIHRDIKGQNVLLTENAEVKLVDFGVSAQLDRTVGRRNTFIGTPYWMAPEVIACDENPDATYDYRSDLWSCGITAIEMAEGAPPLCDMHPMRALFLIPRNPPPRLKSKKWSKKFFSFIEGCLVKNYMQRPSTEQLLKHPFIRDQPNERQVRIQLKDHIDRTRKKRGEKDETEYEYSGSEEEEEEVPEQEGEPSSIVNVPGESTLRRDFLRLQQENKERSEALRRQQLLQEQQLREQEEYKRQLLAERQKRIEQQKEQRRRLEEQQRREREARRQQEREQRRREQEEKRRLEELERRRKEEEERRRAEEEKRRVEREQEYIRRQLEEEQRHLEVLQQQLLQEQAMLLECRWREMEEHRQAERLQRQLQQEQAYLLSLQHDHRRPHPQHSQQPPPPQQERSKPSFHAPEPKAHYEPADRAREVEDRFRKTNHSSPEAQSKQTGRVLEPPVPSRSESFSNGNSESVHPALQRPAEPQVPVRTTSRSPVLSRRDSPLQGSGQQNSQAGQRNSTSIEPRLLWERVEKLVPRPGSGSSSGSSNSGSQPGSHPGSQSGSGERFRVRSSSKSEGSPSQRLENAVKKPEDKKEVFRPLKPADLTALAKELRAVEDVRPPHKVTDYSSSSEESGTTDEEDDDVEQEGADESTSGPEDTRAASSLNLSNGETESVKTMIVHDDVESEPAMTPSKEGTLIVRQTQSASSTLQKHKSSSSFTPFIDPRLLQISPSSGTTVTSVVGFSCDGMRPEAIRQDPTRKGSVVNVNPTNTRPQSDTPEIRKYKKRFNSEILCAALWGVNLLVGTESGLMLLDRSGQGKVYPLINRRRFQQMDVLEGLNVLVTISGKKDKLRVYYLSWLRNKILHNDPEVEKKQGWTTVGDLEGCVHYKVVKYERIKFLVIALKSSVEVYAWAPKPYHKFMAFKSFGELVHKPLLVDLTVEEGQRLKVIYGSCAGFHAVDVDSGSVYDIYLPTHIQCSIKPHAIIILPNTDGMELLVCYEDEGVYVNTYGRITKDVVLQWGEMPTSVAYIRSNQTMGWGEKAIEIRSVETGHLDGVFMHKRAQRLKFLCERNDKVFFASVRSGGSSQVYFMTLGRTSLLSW

RIPK4 (human) = RIPK4 (human) (UniProt P57078)
NEK2 (human) = NEK2 (human) (UniProt P51955)
STK4 (human) = STK4 (human) (UniProt Q13043)
INSRR (human) = INSRR (human) (UniProt P14616)
FRK (human) = FRK (human) (UniProt P42685)
RPS6KA2 KD2 (human) = RPS6KA2 KD2 (human) (UniProt Q15349)
CSK (human) = CSK (human) (UniProt P41240)
CSK (human), sequence (P41240 whole entry, looked up): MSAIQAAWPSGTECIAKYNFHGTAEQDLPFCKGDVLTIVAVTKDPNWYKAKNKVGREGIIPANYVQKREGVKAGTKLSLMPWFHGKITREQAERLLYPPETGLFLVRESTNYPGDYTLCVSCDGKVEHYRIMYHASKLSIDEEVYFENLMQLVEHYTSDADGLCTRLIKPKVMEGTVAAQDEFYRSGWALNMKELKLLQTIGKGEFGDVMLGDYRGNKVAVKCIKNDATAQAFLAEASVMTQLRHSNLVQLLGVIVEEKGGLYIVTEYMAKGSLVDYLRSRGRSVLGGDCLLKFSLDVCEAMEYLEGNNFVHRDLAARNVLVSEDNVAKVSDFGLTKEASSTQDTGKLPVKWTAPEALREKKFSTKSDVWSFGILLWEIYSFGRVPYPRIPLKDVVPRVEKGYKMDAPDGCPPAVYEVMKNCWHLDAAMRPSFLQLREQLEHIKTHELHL

AAK1 (human) = AAK1 (human) (UniProt Q2M2I8)
DAPK2 (human) = DAPK2 (human) (UniProt Q9UIK4)
RPS6KA1 KD2 (human) = RPS6KA1 KD2 (human) (UniProt Q15418)
[4] = test system: RET (human), P07949 [V804M]
[5] = test system: FLT3 (human), P36888 [N841I]
CAMK1D (human) = CAMK1D (human) (UniProt Q8IU85)
[6] = test system: RET (human), P07949 [M918T]
[7] = test system: FLT3 (human), P36888 [K663Q]

COc1cc(N2CCC(N3CCN(C)CC3)CC2)ccc1Nc1ncc(Cl)c(Nc2ccccc2S(=O)(=O)C(C)C)n1
kinase still bound, per cent of control (STK33 (human)): 0.1%
kinase still bound, per cent of control (MAPK6 (human)): 40%
kinase still bound, per cent of control (PRKG1 (human)): 1.3%
kinase still bound, per cent of control (SIK2 (human)): 7.5%
kinase still bound, per cent of control (MARK1 (human)): 0%
kinase still bound, per cent of control (MAP2K2 (human)): 1.8%
kinase still bound, per cent of control (AKT3 (human)): 40%
kinase still bound, per cent of control (MAP2K6 (human)): 40%
kinase still bound, per cent of control (CAMK2B (human)): 5.8%
kinase still bound, per cent of control (MAPK12 (human)): 40%
kinase still bound, per cent of control [1]: 7.4%
kinase still bound, per cent of control (SRMS (human)): 0%
kinase still bound, per cent of control (MLTK (human)): 40%
kinase still bound, per cent of control (RAF1 (human)): 40%
kinase still bound, per cent of control (CSNK1G1 (human)): 40%
kinase still bound, per cent of control (ULK2 (human)): 1.1%
kinase still bound, per cent of control (PLK1 (human)): 0.1%
kinase still bound, per cent of control (ACVR1 (human)): 0%
kinase still bound, per cent of control (TEC (human)): 0.7%
kinase still bound, per cent of control (STK32C (human)): 3.1%
kinase still bound, per cent of control [2]: 0.95%
kinase still bound, per cent of control (CLK4 (human)): 1.2%
kinase still bound, per cent of control (BMPR2 (human)): 40%
kinase still bound, per cent of control [3]: 11%
kinase still bound, per cent of control (NTRK3 (human)): 40%
kinase still bound, per cent of control (CIT (human)): 40%
kinase still bound, per cent of control (MAP4K4 (human)): 5.4%
kinase still bound, per cent of control (RIPK4 (human)): 40%
kinase still bound, per cent of control (NEK2 (human)): 2.5%
kinase still bound, per cent of control (STK4 (human)): 4.1%
kinase still bound, per cent of control (INSRR (human)): 0.35%
kinase still bound, per cent of control (FRK (human)): 0.2%
kinase still bound, per cent of control (RPS6KA2 KD2 (human)): 6.2%
kinase still bound, per cent of control (CSK (human)): 2%
kinase still bound, per cent of control (AAK1 (human)): 2.8%
kinase still bound, per cent of control (DAPK2 (human)): 12%
kinase still bound, per cent of control (RPS6KA1 KD2 (human)): 10%

CCN1CCN(Cc2ccc(NC(=O)c3ccc(C)c(Oc4ccnc5[nH]ccc45)c3)cc2C(F)(F)F)CC1
kinase still bound, per cent of control (MAPK12 (human)): 0%
kinase still bound, per cent of control [1]: 2.7%
kinase still bound, per cent of control (SRMS (human)): 4.6%
kinase still bound, per cent of control (MLTK (human)): 0.35%
kinase still bound, per cent of control (RAF1 (human)): 7%
kinase still bound, per cent of control [4]: 1%
kinase still bound, per cent of control [2]: 1.2%
kinase still bound, per cent of control [5]: 0%
kinase still bound, per cent of control [3]: 0%
kinase still bound, per cent of control (NTRK3 (human)): 3.8%
kinase still bound, per cent of control (CIT (human)): 0.1%
kinase still bound, per cent of control (MAP4K4 (human)): 0%
kinase still bound, per cent of control (CAMK1D (human)): 6.2%
kinase still bound, per cent of control [6]: 0%
kinase still bound, per cent of control (INSRR (human)): 23%
kinase still bound, per cent of control (FRK (human)): 0.7%
kinase still bound, per cent of control (CSK (human)): 0.45%
kinase still bound, per cent of control [7]: 0%
